Laboratory results reported in article PMC12406253, “Exploration of the Neuromodulatory Properties of Fyn and GSK-3β Kinases Exploiting 7‑Azaindole-Based Inhibitors” (Journal of Medicinal Chemistry, 2025).
One block for each compound: values may come before it.

What was measured:
[1] = BBB permeability in hCMEC/D3 transwell model; settings: human
Experimental: To this aim, the immortalized human brain endothelial cell line (hCMEC/D3) was used since it mimics the brain endothelium-restricted permeability and expresses most of the transporters and receptors present in vivo, constituting a valuable in vitro model of the human BBB crossing system.
BBB permeability assay was conducted as described in Albertini et al. The brain microvascular endothelial cells (hCMEC/D3) were seeded at the density of 5 × 10^4 cells per cm^2 in the upper compartment of Transwell filters (polyester, pore size 0.4 μm, 12-well tissue culture transwell; Corning), precoated with rat tail collagen type I (0.1 mg/mL; Roche). They were grown for 7 days up to confluence in Endothelial Cell Growth Medium 2 (Promocell), supplemented with penicillin/streptomycin 100 U/mL, in a humidified, 5% CO2 incubator at 37 °C. Confluent monolayers were washed in prewarmed HBSS buffer, and the selected compounds were added to the apical (AP) side at a concentration of 100 μM. […] Samples (100 μL) were collected from the BL side at different time points (15, 30, 60, and 90 min) and then replaced with the corresponding volume of HBSS buffer. […] The concentration of compounds was determined using a Ultimate 3000 HPLC system (ThermoFisher) with UV–vis detection at the maximum absorption wavelength of each compound except for inulin as determined by a spectrophotometric method using a Tecan Sunrise absorbance microplate reader. […] The permeability coefficient (Papp) was calculated as follows: Papp = (ΔQ/Δt)/(C [donor] × A), where ΔQ/Δt represents the permeation rate (mol/s), C [donor] is the initial compound concentration in the donor compartment at time 0 (mol/cm^3), and A represents the surface area of the filter (1.12 cm^2).

human recombinant GSK-3β = human recombinant GSK-3β (Homo sapiens, UniProt P49841); experiment: GSK-3β kinase assay, LANCE Ultra TR-FRET; format: biochemical; settings: for IC50: mean ± SD of at least three independent determinations, ATP near Km
Sequence of human recombinant GSK-3β (P49841 whole entry): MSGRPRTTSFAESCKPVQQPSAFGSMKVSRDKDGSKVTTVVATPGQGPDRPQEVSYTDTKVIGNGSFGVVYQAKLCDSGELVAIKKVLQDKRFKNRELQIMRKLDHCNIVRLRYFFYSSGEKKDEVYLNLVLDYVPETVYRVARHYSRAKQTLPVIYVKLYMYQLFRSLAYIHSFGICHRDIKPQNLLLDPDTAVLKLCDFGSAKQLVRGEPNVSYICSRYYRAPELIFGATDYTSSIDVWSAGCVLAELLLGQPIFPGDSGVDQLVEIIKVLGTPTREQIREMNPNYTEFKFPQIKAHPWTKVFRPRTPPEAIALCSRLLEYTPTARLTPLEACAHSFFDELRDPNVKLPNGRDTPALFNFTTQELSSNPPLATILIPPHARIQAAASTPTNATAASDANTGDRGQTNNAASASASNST
Experimental: GSK-3β and FYNα kinase assays were run in 384-well microplates (OptiPlate-384, White, PerkinElmer) in a total reaction volume of 20 μL. The inhibitory potency against human recombinant GSK-3β and FYNα (Carna Biosciences) was evaluated using the LANCE Ultra (PerkinElmer) time-resolved fluorescence resonance energy transfer (TR-FRET) by measuring the phosphorylation of the ULight-labeled substrate, according to the manufacturer's instructions. […] Briefly, test compounds and staurosporine (reference compound) or DMSO (control) are mixed with the enzyme (GSK-3β: 2 nM and FYNα: 1 nM) in a buffer containing 50 mM HEPES (pH 7.5), 1 mM EGTA, 10 mM MgCl2, 2 mM DTT, and 0.01% Tween-20. […] Following incubation, the reaction is stopped by adding 6 mM EDTA. After 5 min, the antiphospho antibody labeled with europium chelate is added. After 1 more hour, the kinase reaction is monitored by irradiation at 320 nm and the fluorescence measured at 615 and 665 nm, using EnVision 2014 Multilabel Reader (PerkinElmer). The calculated signal ratio at 665/615 nm is proportional to the extent of ULight-substrate phosphorylation. The compounds were tested at 11 different concentrations ranging from 3 nM up to 100 μM in triplicate. […] The results were expressed as a percent inhibition of the control enzyme activity. Dose-response curves were run in at least three independent experiments, performed in three technical replicates. IC50 values (concentrations causing half-maximal enzyme inhibition) were determined by nonlinear regression analysis of the Log[concentration]/response curves generated with mean replicate values using a four parameter Hill equation curve fitting with GraphPad Prism 8 (GraphPad Software Inc., CA-USA).

FYNα = FYNα (Homo sapiens, UniProt P06241); experiment: FYNα kinase assay, LANCE Ultra TR-FRET; format: biochemical; settings: for IC50: mean ± SD of at least three independent determinations, ATP near Km, read-out: Fyn IC50
Sequence of FYNα (P06241 whole entry): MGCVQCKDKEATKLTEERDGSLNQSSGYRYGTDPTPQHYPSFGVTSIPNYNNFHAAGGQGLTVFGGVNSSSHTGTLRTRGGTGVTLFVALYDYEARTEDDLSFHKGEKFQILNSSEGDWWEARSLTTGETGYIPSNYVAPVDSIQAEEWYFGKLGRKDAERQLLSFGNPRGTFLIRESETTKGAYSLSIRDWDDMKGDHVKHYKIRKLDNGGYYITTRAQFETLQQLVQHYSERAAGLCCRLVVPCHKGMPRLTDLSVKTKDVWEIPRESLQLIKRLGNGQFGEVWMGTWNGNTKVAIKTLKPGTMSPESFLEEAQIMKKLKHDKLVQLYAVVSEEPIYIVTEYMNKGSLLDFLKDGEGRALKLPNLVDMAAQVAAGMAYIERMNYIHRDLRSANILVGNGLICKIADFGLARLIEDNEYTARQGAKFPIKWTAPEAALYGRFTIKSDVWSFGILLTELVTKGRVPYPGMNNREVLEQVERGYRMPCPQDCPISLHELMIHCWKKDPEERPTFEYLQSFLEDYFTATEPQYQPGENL
Experimental: GSK-3β and FYNα kinase assays were run in 384-well microplates (OptiPlate-384, White, PerkinElmer) in a total reaction volume of 20 μL. The inhibitory potency against human recombinant GSK-3β and FYNα (Carna Biosciences) was evaluated using the LANCE Ultra (PerkinElmer) time-resolved fluorescence resonance energy transfer (TR-FRET) by measuring the phosphorylation of the ULight-labeled substrate, according to the manufacturer’s instructions. The synthetic peptide surrounding Ser641 of human muscle glycogen synthase (ULight-GS (Ser641/pSer657)) and the synthetic 28-amino acid peptide containing eight Tyr residues placed in different amino acid contexts (ULightTM-TK (PT66)) were selected as specific substrates for GSK-3β and FYNα, respectively. Briefly, test compounds and staurosporine (reference compound) or DMSO (control) are mixed with the enzyme (GSK-3β: 2 nM and FYNα: 1 nM) in a buffer containing 50 mM HEPES (pH 7.5), 1 mM EGTA, 10 mM MgCl2, 2 mM DTT, and 0.01% Tween-20. […] Following incubation, the reaction is stopped by adding 6 mM EDTA. After 5 min, the antiphospho antibody labeled with europium chelate is added. After 1 more hour, the kinase reaction is monitored by irradiation at 320 nm and the fluorescence measured at 615 and 665 nm, using EnVision 2014 Multilabel Reader (PerkinElmer). The calculated signal ratio at 665/615 nm is proportional to the extent of ULight-substrate phosphorylation. The compounds were tested at 11 different concentrations ranging from 3 nM up to 100 μM in triplicate. […] The results were expressed as a percent inhibition of the control enzyme activity.
Dose–response curves were run in at least three independent experiments, performed in three technical replicates. IC50 values (concentrations causing half-maximal enzyme inhibition) were determined by nonlinear regression analysis of the Log[concentration]/response curves generated with mean replicate values using a four parameter Hill equation curve fitting with GraphPad Prism 8 (GraphPad Software Inc., CA-USA).

[2] = system: primary rat cerebellar granule neurons (CGNs); experiment: Neurotoxicity, cell viability in CGNs (MTT); format: cell-based; settings: 5, 10, and 25 μM, 24 h
Experimental: A preliminary cell viability assessment was conducted in primary rat cerebellar granule neurons (CGNs), which are considered a reliable model for studying cellular and molecular mechanisms of survival/apoptosis and neurodegeneration/neuroprotection.
Primary cerebellar granule cells were dissociated from cerebella and plated on 96-well plates, previously coated with 10 μg/mL poly-L-lysine, at a density of 1.2 × 10^5 cells/0.2 mL medium/well in BME supplemented with 10% heat-inactivated FBS (Life Technologies), 2 mmol/L glutamine, 100 μmol/L gentamicin sulfate, and 25 mM KCl (all from Sigma-Aldrich). Sixteen hours later, 10 μM cytosine arabinofuranoside (Sigma-Aldrich) was added to avoid glial proliferation. After 7 days in vitro, differentiated neurons were shifted to serum-free BME medium and exposed to increasing concentrations (5 μM, 10 μM, 25 μM) of compounds of interest for 24 h. Then, cell viability was evaluated through the MTT assay.

[3] = system: immortalized murine microglia N9; experiment: Immunomodulation in LPS-treated N9 microglia, Western blot of iNOS and TREM2; settings: 2.5 and 5 μM; 100 ng/mL LPS, 24 h
Experimental: To gain a conclusive answer on the potential role of these kinase inhibitors in counteracting neuroinflammatory processes, after the verified induced astrocytic polarization, the ability of selected compounds to modulate inflammatory response was analyzed by favoring the immunomodulatory switch from neurotoxic M1 phenotype of microglia to phagocytic and neuroprotective M2 phenotype, evaluating inducible nitric oxide synthase (iNOS) and TREM2 as M1 and M2 markers (Figure ).
The microglial phenotype was evaluated through Western blot analysis of the pro-inflammatory iNOS and anti-inflammatory-TREM2 markers.

[4] = system: neurospheres (NPCs from the subventricular zone); experiment: Neurosphere growth analysis (NPC proliferation); format: cell-based, mice; settings: 0.1, 1, and 5 μM; 7 days
Experimental: Based on that, we further investigated the neurogenic and differentiation potential of our kinase inhibitors in cell culture of neurospheres, which are floating pools of NPCs coming from the subventricular zone (SVZ) of six-month-old mice. Particularly, we first analyzed the variation, during 7 days, in number and size of neurosphere population with and without treatment.
To investigate the effect of compounds of interest in neurospheres’ growth rate, single spheres were plated in suspension in 96-well plates (5 × 10^3 cells/well) in the presence of compounds (0.1 μM, 1 μM, and 5 μM) in complete DMEM F-12 culture medium. One image/well was acquired every day by using the Sartorius Incucyte Live-Cell Analysis System and evaluated through the Brightfield Spheroid Analysis Software Module. Only aggregates with areas larger than 400 μm^2 were considered for statistical analysis.

[5] = system: primary rat cerebellar granule neurons (CGNs); experiment: Neuroprotection in CGNs, serum/potassium deprivation (MTT); format: cell-based; settings: 5, 10, and 25 μM, 48 h
Description: First, we evaluated the neuroprotective properties of the selected compounds in the same cell line, once the expression of Fyn and GSK-3β in this cellular model was verified (Figure S2), after a serum/potassium deprivation experiment, which simulates physiological aging (and mortality), triggering around 20% of cell death. In particular, 7 days differentiated CGNs were exposed to serum-free BME medium with low extracellular concentration of K^+ ions and treated at selected doses (i.e., 5, 10, and 25 μM) of compounds for 48 h. Neuronal viability was then determined with an MTT assay.
To evaluate the neuroprotective effect of our compounds, we tested increasing concentrations (5 μM, 10 μM, 25 μM) of compounds of interest in differentiated CGNs switched to serum-free BME medium with 5 mM KCl (serum-potassium deprivation) for 48 h to mimic in vitro the naturally occurring death of granule cells. Neuroprotection was evaluated through MTT assay.
For MTT assay, thiazolyl blue was added to the culture medium at a final concentration of 0.1 mg/mL. Following a 20 min incubation at 37 °C in the dark, the MTT precipitate was dissolved in 0.1 M Tris–HCl pH 7.5 buffer containing 5% Triton X-100 (all from Sigma-Aldrich) and absorbance was read at 570 nm in a microplate spectrophotometric reader (Bio-Rad).

[6] = system: neurospheres (NPCs from the subventricular zone); experiment: Neurosphere differentiation, immunofluorescence of DCX, GFAP, OLIG2; format: cell-based, mice; settings: 1 μM; 7 days
Description: Lastly, we move forward to evaluate the neuromodulatory profile of selected compounds that involves the capability to polarize the spontaneous differentiation of neurospheres, which potentially can maturate in neurons or macroglia, such as astrocytes and oligodendrocytes. Modulating NPC differentiation is especially relevant under neurodegenerative conditions as it could offer an intriguing opportunity to achieve polyhedric therapeutic effects. Importantly, neuronal differentiation may help to counteract the progressive neuronal loss, while promoting oligodendrocyte phenotype could support remyelination and neuronal function and the astrocytic polarization may aid to foster a neuroprotective profile. Particularly, after 7 days of treatment at 1 μM, in the same experimental conditions previously reported, cells were fixed and stained with different antibody markers such as doublecortin (DCX) for the immature neurons, glial fibrillary acidic protein (GFAP) for astrocytes, and oligodendrocyte transcription factor 2 (OLIG2) for oligodendrocyte precursors for immunofluorescence analysis (Figure a). […] By driving the maturation of astrocytes, compounds 41 and 43 could exert neuroprotection through multiple mechanisms, including the secretion of neurotrophic factors, enhancement of antioxidant defenses, regulation of water balance, ion homeostasis, and glutamate buffering and recycling. Furthermore, astrocytes support the integrity of the blood–brain barrier (BBB) and aid in the refinement of neural networks via synaptic pruning, further reinforcing their role in preserving brain function and structure.
NSCs were initially obtained by SVZ microdissection of 6 months-old C57BL/6N wild-type male mice (Mus musculus) and routinely cultured in suspension in DMEM-F12 (Gibco; ThermoFisher Scientific, Waltham, MA, USA) supplemented with 2 mM glutamine, 10 μg/mL insulin from bovine pancreas (Sigma-Aldrich; St Louis, MO, USA), 20 ng/mL epidermal growth factor (EGF; PeproTech EC, London, UK), 20 ng/mL fibroblast growth factor-2 (FGF2; PeproTech), 1% N2 (ThermoFisher Scientific), 1% B27 (ThermoFisher Scientific), 10 units/mL penicillin, and 10 μg streptomycin.
To assess the effect of compounds of interest in NSCs differentiation, 30 spheres were plated on 13 mm glass coverslips, previously coated with Matrigel matrix (Corning; New York, USA), in complete DMEM F-12 medium, and treated with 1 μM of compounds of interest. After 7DIV, neurospheres were fixed for 20 min with 4% PFA in PBS 0.1% pH 7.4. Fixed neurospheres were permeabilized in 0.1% Triton/PBS and nonspecific sites were blocked for 1 h with 0.1% Triton/PBS and 5% normal goat serum (Sigma-Aldrich; St Louis, MO, USA). Cells were then incubated overnight at 4 °C with the following primary antibodies: Anti-Doublecortin DCX (Abcam, Cambridge, UK), GFAP (Dakopatts), OLIG2 (Santa Cruz Biotechnology), 1:500 dilution in 0.1% Triton/PBS with 2% normal goat serum. After 3 washes in 0.1% Triton/PBS, specific secondary antibodies were added for 2 h at RT in the dark: Donkey anti-Mouse IgG Alexafluor 555 (Abcam, Cambridge, UK), Goat anti-Rabbit IgG Alexafluor 555 (Abcam, Cambridge, UK), 1:1000 dilution in 0.1% Triton/PBS with 2% normal goat serum. Following 3 washes in 0.1% Triton/PBS, nuclei were stained with DAPI (2 μg/mL, Sigma-Aldrich) for 5 min. Glass coverslips were mounted by using Ultracruz Aqueous Mounting Medium with DAPI (Santa Cruz Biotechnology). Neurospheres confocal images were obtained with a Nikon EZ-C1 microscope (60× objective) and the z-stack function (1024 steps and 1 μm thickness layers; 40 total stacks). 3D image reconstruction was performed by using Fiji ImageJ2 software, z-project plugin, and selecting the sum stacks’ function. Fluorescence intensity index was estimated as the ratio of markers’ positive cells intensity/total cells fluorescence intensity stained with DAPI per ROI.

[7] = 50 μM, mean ± SD, n.i. = no inhibition

Compound: Cc1cc(=O)n(-c2ccccc2)n1C [Antypirine, antipyrine, reference compound]
Papp A→B at 90 min, 100 μM [1]: 28 ± 0.53 ×10⁻⁶ cm/s

Compound: Br.Cn1cc(-c2csc(NCc3ccccc3)n2)c2cccnc21 [Compound 35]
inhibition at 50 µM (human recombinant GSK-3β; [7]): 9.8%
Fyn % Inhibition @ 50 μM (FYNα; [7]): n.i.

Compound: Br.C=CCn1cc(-c2csc(NCc3ccccc3)n2)c2cccnc21 [Compound 36]
inhibition at 50 µM (human recombinant GSK-3β; [7]): 4%
Fyn % Inhibition @ 50 μM (FYNα; [7]): n.i.

Compound: c1ccc(CNc2nnc(-c3c[nH]c4ncccc34)s2)cc1 [Compound 40, N-Benzyl-5-(1H-pyrrolo[2,3-b]pyridin-3-yl)-1,3,4-thiadiazol-2-amine]
Neurotoxicity on CGNs (cell viability compared to control) [2]: not neurotoxic
Neuroprotection on CGNs (cell viability after serum/potassium deprivation) [5]: almost equipotent to inactive compounds
Neurosphere number (object count per image), neurogenesis [4]: pronounced neurogenesis
Differentiation toward astrocytes (GFAP) [6]: negatively affected astrocytic differentiation
Differentiation toward neurons (DCX) [6]: mild increment
Differentiation toward oligodendrocytes (OLIG2) [6]: inactive regarding oligodendrocytes
TREM2 expression (M2 marker) vs LPS [3]: no significant variations

Compound: Br.Cc1sc(NCc2ccncc2)nc1-c1c[nH]c2ncccc12 [Compound 42, 5-Methyl-N-(pyridin-4-ylmethyl)-4-(1H-pyrrolo[2,3-b]pyridin-3-yl)thiazol-2-amine Hydrobromide]
IC50 (FYNα): 200 ± 20 nM
Neurosphere dimension (brightfield object total area), maturation [4]: premature increase in dimension

Now from value to compound, other results behind:

GSK-3β % Inhibition @ 50 μM (human recombinant GSK-3β; [7]): completely inactive
Fyn % Inhibition @ 50 μM (FYNα; [7]): completely inactive
Compound: Br.CN(C)c1ccc(CNc2nc(-c3c[nH]c4ncccc34)cs2)cc1 [Compound 26, N-(4-(Dimethylamino)benzyl)-4-(1H-pyrrolo[2,3-b]pyridin-3-yl)thiazol-2-amine Hydrobromide]
Neurotoxicity on CGNs (cell viability compared to control) [2]: not neurotoxic
TREM2 expression (M2 marker) vs LPS [3]: no significant variations

IC50 (FYNα): 3480 ± 680 nM
Compound: Br.c1cnc2[nH]cc(-c3csc(NCc4ccncc4)n3)c2c1 [Compound 27, N-(Pyridin-4-ylmethyl)-4-(1H-pyrrolo[2,3-b]pyridin-3-yl)thiazol-2-amine Hydrobromide]
Neurosphere dimension (brightfield object total area), maturation [4]: noticeable maturation at days 6 and 7
Neurosphere number (object count per image), neurogenesis [4]: pronounced neurogenesis

IC50 (human recombinant GSK-3β): 2450 ± 540 nM
Fyn % Inhibition @ 50 μM (FYNα; [7]): n.i.
Compound: Br.CN(Cc1ccccc1)c1nc(-c2c[nH]c3ncccc23)cs1 [Compound 33, N-Benzyl-N-methyl-4-(1H-pyrrolo[2,3-b]pyridin-3-yl)thiazol-2-amine Hydrobromide]
Neuroprotection on CGNs (cell viability after serum/potassium deprivation) [5]: almost equipotent to inactive compounds

IC50 (human recombinant GSK-3β): 6840 ± 170 nM
inhibition at 50 µM (FYNα; 50 μM, mean ± SD, n.i. = no inhibition, read-out: Fyn % Inhibition @ 50 μM): 47.2%
Compound: Nc1nc(-c2c[nH]c3ncccc23)cs1 [Compound I]
